According to patent publication US10399968B2, “Hydroxyalkyl thiadiazole derivatives” (Daiichi Sankyo Company, Limited, priority 2015, dated 2019):
≈ marks a conversion by molar mass, not a printed value. Read-outs that look alike come from different tables or passages of the source.

Key:
[1] = Animal infection models (background statement); settings: in vivo
[2] = Solubility for oral absorption (background statement); assay type: physicochemical; settings: compared to compounds disclosed in this patent application
[3] = biological target: Clostridium difficile DNA gyrase (Clostridioides difficile, UniProt Q18C89); assay: DNA supercoiling inhibition assay; assay type: biochemical; settings: supercoiling of relaxed pBR322 DNA, 60 minutes at 37° C.
Experimental: DNA supercoiling assays (30 μL reaction) were performed in a buffer containing 15 mM Tris-HCl pH 7.5, 13% glycerol, 6 mM MgCl2, 0.1 mg/mL BSA, 70 mM KCl, 1 mM dithioerythritol, 400 ng of DNA substrate (relaxed pBR322 DNA) and different concentrations of test compounds and/or standards. The dilutions of test compounds and standards were prepared in 20% dimethylsulfoxide (DMSO) and added 3 μL/reaction. The reaction was started by adding 2 μL amounts of Clostridium difficile DNA gyrase into the reaction mixtures and reactions were allowed to proceed for 60 minutes at 37° C. A reaction was carried out by adding 3 μL of 20% DMSO instead of test compound as full reaction control, and another reaction was carried out by adding sterile water instead of the enzyme as no reaction control.
Reactions were stopped by the addition of 5 μL of 6×loading dye and were analyzed by electrophoresis through 1.0% agarose gels with 1×TAE running buffer. Gels were run at 60 V for 3 hours, stained with EtBr, and visualized by Gel Doc system (BioRad). Intensity of the supercoiled DNA bands was quantified, and the IC50 of Clostridium difficile DNA gyrase was calculated using Graph Pad Prism.

S. aureus ATCC 29213 = assay: Susceptibility of bacteria, broth microdilution MIC; assay type: cell-based; settings: Staphylococcus aureus, ATCC29213
Experimental: The antibacterial activity of the compounds of the present invention was tested by the broth microdilution method. The assay was carried out according to the CLSI guidelines for managing the procedures of susceptibility tests: “M7-A7 Methods for Dilution Antimicrobial Susceptibility Tests for Bacteria That Grow Aerobically; Approved Standard-Seventh Edition (2006)”. Test strains were grown on appropriate agar plates overnight. A broth containing the test compound diluted serially 2-fold and diluents were dispensed at 100 μL to each well of a 96-well microplate. As a growth control, a well with a broth not containing the test compound was also prepared. Colonies grown on the plates were suspended in saline, adjusted to 0.5 McFarland (OD625=0.08 to 0.10) using a colorimeter, and then diluted 10-fold with saline. The bacterial suspension was inoculated at 4 μL into each well of the microplate using a bacterial suspension inoculation apparatus. The inoculated microplate was incubated at 35° C. overnight (about 20 hours). The growth condition was observed by the naked eye, and the minimum concentration to inhibit bacterial proliferation was defined as a minimum inhibitory concentration (MIC). The MICs of compounds disclosed herein for E. faecium, Streptococcus pneumoniae and Haemophilus influenzae are shown in Table 2, while for S. aureus in Table 3.

[4] = system: Clostridium difficile ATCC 43255; assay: Susceptibility of Clostridium difficile, agar dilution MIC; assay type: cell-based; settings: Clostridioides difficile, ATCC43255, anaerobic
Experimental: The antibacterial activity of the compounds of the present invention against Clostridium difficile clinical isolates was tested by the agar dilution method. The assay was carried out according to the CLSI guidelines for managing the procedures of susceptibility tests “M11-A8, Methods for Antimicrobial Susceptibility Testing of Anaerobic Bacteria; Approved Standard-Eighth Edition. CLSI document (2012)”.
The test strains were spread on supplemented Brucella agar (SBA) plates and grown at 36° C. under anaerobic condition for 42 to 48 hours. The test compound dilutions were prepared with Brucella broth and SBA plates containing dilution of test compound were prepared. As an anaerobic growth control, plates not containing the test compound were also prepared. Colonies grown on plates were suspended with Brucella broth to adjust the turbidity to 0.5 McFarland using a densitometer. Suspension (1-2 μL) of the test strains was inoculated onto each agar surface by using a bacterial suspension inoculation apparatus. After anaerobic incubation at 36° C. for 42 to 48 hours, absence and presence of growth of each strain were examined with unaided eye. The MIC was determined at which a marked reduction occurs in the appearance of growth on the test plate as compared to that of growth on the anaerobic control plates.

[5] = Solubility in water (JP1 / JP2 fluids); assay type: physicochemical; settings: thermodynamic from solid
Experimental: A 10 mmol/L solution of the test compound was prepared in DMSO and dispensed 100 μL of 10 mmol/L DMSO stock solutions into labeled glass tubes in duplicate, one for Japanese Pharmacopeia First Fluid (JP1) and second for Japanese Pharmacopeia Second Fluid (JP2). After evaporation of DMSO from each tube, 500 μL of JP1 and JP2 fluid were added in each tube, respectively. These tubes were sonicated for 1 minute and placed on shaker for 30 minutes with an interval of 30 seconds at every 5 minute. Tubes were placed in dark at room temperature for 1 hour and solution was filtered through membrane filter. The filtrate was diluted 2-fold and 10-fold. The resulting test solutions was analyzed and quantified against the standards using UPLC (standard preparation—10 mmol/L solution in DMSO is serially diluted with 50% aqueous acetonitrile solution to prepare 2 solutions; 100 μmol/L standard solution and 5 μmol/L standard solutions).

[6] = system: Clostridium difficile 2009155, a NAP1/027 strain; assay: Hamster CDI model; assay type: in vivo; settings: 0.3 mg/kg/day by oral route, 5 days
Experimental: The in vivo efficacy of test compounds were evaluated in a hamster CDI model caused by Clostridium difficile 2009155, a NAP1/027 strain. Syrine hamsters (6-8-weeks old) were primed with a single subcutaneous injection of clindamycin (30 mg/kg) 1-5 days prior to infection. Hamsters were infected by oral gavage with 1 ml of spore suspension ([…]) prepared in PBS. The drug was administered to the hamsters 6 hours post infection by oral or subcutaneous route at an interval of 24 hours for 5 days. The death and survival of the non-treated group and the drug-administered group were recorded once daily for 35 days.

P. acnes ATCC 6523 = assay: Susceptibility of P. acnes, agar dilution MIC; assay type: cell-based; settings: Cutibacterium acnes, ATCC6523, anaerobic
Experimental: (§1) The antibacterial activity of the compounds of the present invention against P. acnes clinical isolates was tested by the agar dilution method. The assay was carried out according to the CLSI guidelines document (Clinical and Laboratory Standards Institute, 2012 & 2016). The test strains were spread on supplemented Brucella agar (SBA) plates and grown for 42 to 48 hours at 36° C. under anaerobic condition. The test compound dilutions were prepared with Brucella broth and SBA plates containing dilution of test compound were prepared. As an anaerobic growth control and to check the aerobic contamination, plates not containing the test compound were also prepared. Colonies grown on plates were suspended with Brucella broth to adjust the turbidity to 0.5 McFarland using a densitometer. Suspension (1-2 μL) of the test strains was inoculated onto each agar surface by using a bacterial suspension inoculation apparatus (multipoint inoculator). After anaerobic incubation for 42 to 48 hours at 36° C., absence and presence of growth of each strain on growth control plates and test compounds plate were examined with unaided eye. The MIC was determined at which a marked reduction occurs in the appearance of growth on the test plate as compared to that of growth on the anaerobic control plates.

P. acnes ATCC 6921 = assay: Susceptibility of P. acnes, agar dilution MIC; assay type: cell-based; settings: Cutibacterium acnes, ATCC6921, anaerobic
Experimental: as §1

P. acnes IHMA 103740 = assay: Susceptibility of P. acnes, agar dilution MIC; assay type: cell-based; settings: Cutibacterium acnes, IHMA103740, anaerobic
Experimental: as §1

P. acnes IHMA 775486 = assay: Susceptibility of P. acnes, agar dilution MIC; assay type: cell-based; settings: Cutibacterium acnes, IHMA775486, anaerobic
Experimental: as §1

[7] = system: N. gonorrhoeae clinical isolates; assay: Susceptibility of N. gonorrhoeae, agar dilution MIC; assay type: cell-based
Experimental: The antibacterial activity of the compounds of the present invention against N. gonorrhoeae clinical isolates was tested by the agar dilution method [Clinical and Laboratory Standards Institute, 2016]. The test strains were spread on chocolate agar plates and grown for 20-24 h at 36° C. in 5% carbon dioxide. The test compound dilutions were prepared with broth and agar MIC plates were prepared using GC agar base supplemented with haemoglobin and 1% IsoVitaleX plates. As growth control plates not containing the test compound were also prepared. Colonies grown on plates were suspended with broth to adjust the turbidity to 0.5 McFarland using a densitometer. Suspension (1-2 μL) of the test strains was inoculated onto each agar surface by using a bacterial suspension inoculation apparatus (multipoint inoculator). After aerobic incubation for 20-24 h at 36° C. in 5% carbon dioxide, absence and presence of growth of each strain on growth control plates and test compounds plate were examined with unaided eye. The MIC was determined at which a marked reduction occurs in the appearance of growth on the test plate as compared to that of growth on the aerobic control plates.

Chain of Clostridium difficile DNA gyrase (Q18C90 entry or part of it): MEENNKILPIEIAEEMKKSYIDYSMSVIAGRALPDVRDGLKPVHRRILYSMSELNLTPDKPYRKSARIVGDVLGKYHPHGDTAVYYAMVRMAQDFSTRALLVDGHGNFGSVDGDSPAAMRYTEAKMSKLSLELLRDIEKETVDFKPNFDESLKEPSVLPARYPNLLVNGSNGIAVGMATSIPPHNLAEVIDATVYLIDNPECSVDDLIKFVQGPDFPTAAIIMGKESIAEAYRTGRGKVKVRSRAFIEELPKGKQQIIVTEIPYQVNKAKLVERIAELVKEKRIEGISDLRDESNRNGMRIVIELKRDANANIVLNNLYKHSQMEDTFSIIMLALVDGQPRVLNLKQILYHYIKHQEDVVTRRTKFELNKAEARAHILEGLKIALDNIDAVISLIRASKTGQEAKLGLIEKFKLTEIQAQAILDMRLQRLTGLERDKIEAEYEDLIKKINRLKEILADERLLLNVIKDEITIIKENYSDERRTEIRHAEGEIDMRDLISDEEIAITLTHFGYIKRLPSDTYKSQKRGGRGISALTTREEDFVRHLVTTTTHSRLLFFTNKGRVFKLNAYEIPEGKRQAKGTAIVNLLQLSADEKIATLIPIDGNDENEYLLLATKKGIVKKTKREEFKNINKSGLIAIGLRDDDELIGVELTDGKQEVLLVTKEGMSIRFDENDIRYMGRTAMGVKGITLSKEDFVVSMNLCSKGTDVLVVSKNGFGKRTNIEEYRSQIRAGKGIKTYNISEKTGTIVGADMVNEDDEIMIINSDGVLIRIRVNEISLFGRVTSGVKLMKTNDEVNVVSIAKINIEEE
Chain of Clostridium difficile DNA gyrase (Q18C89 entry or part of it): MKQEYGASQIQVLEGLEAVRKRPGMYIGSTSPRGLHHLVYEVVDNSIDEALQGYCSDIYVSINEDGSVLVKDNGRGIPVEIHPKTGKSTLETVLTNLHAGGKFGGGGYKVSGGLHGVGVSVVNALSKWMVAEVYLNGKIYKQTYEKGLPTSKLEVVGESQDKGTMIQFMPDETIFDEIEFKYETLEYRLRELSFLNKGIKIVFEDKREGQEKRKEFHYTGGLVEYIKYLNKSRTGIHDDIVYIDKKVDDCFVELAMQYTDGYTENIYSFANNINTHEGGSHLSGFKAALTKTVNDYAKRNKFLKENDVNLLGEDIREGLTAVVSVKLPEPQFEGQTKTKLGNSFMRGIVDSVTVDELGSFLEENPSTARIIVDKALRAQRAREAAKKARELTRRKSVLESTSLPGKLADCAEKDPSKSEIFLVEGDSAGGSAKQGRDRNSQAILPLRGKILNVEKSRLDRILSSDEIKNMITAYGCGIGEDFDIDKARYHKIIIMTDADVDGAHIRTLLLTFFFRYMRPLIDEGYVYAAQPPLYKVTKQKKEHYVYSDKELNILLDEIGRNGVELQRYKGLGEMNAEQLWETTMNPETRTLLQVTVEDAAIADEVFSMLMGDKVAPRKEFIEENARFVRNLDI

SMILES	efficacy in animal infection models [1]	solubility [2]	IC50 [3]	MIC (S. aureus ATCC 29213)	MIC [4]	solubility at 30 min ([5]; Japanese Pharmacopeia First Fluid (JP1), pH 1.2, simulated gastric fluid, read-out: Solubility JP1)	solubility at 30 min ([5]; Japanese Pharmacopeia Second Fluid (JP2), pH 6.8, aqueous buffer, read-out: Solubility JP2)	survival on day 35 [6]	MIC (P. acnes ATCC 6523)	MIC (P. acnes ATCC 6921)	MIC (P. acnes IHMA 103740)	MIC (P. acnes IHMA 775486)	MIC [7]
CCO[C@H]1CN(c2nncs2)CC[C@H]1NC(=O)c1nc(Cl)c(CC)[nH]1 [Compound No. 150]	not being efficacious	low	–	–	–	–	–	–	–	–	–	–	–
CCc1[nH]c(C(=O)N[C@@H]2CCN(c3nnc(C(C)(O)CO)s3)C[C@@H]2OC)nc1Cl (stereo in doubt) [Compound No. 10, 4-Chloro-N-[(3S,4R)-1-{5-[(2R)-1,2-dihydroxypropan-2-yl]-1,3,4-thiadiazol-2-yl}-3-methoxypiperidin-4-yl]-5-ethyl-1H-imidazole-2-carboxamide]	–	–	60.7 nM	1 µg/mL (≈ 2.25 µM)	0.06 µg/mL (≈ 0.135 µM)	887 µg/mL (≈ 1990 µM)	429 µg/mL (≈ 964 µM)	100%	0.125 µg/mL (≈ 0.281 µM)	0.125 µg/mL (≈ 0.281 µM)	0.125 µg/mL (≈ 0.281 µM)	0.125 µg/mL (≈ 0.281 µM)	0.125 µg/mL (≈ 0.281 µM)
